Assay results reported in patent US20050043260A1, “Wnt as a factor for cardiac myogenesis” (BAYLOR COLLEGE OF MEDICINE, priority 2003, published 2005).

Legend:
Format in all cases: cell-based
P19CL6 cells [1] = assay: Cardiac-specific gene expression by QRT-PCR in differentiating P19CL6 cells; design: expression of Nkx2.5, GATA4, Tbx5, BMP2, BMP4: dose or concentration left out as unconfirmed
Experimental: (§1) Cells were grown on 10 cm dishes in α-minimal MEM; Invitrogen) supplemented with 10% fetal bovine serum (FBS) (Hyclone), streptomycin. To induce differentiation, cells were seeded at a 1:40 dilution with α-MEM, DMSO. For each experiment, cardiomyocyte differentiation was apparent in the control spontaneous beating, starting day 9 to 10. To obtain stable transformants incorporating GSK-vector control, cells were transfected using Lipofectamine2000 (Invitrogen) and medium containing 500 μg/ml Geniticin (Invitrogen). After 10-14 day, 60 colonies were picked and screened by RT-PCR. To detect exogenous GSK-3β selectively, the 5′ primer corresponded to the N terminus and the 3′ primer to the H. influenza hemagglutinin epitope tag.
RNA was isolated using TRIzol (Invitrogen). RNA (0.1 μg) was subjected to quantitative RT-PCR using the TaqMan One-step RT-PCR Master Mix Biosystems); the RT and PCR were run sequentially using a 7700 Sequence Detector (Applied Biosystems). Copy number for each transcript was expressed relative to that of glyceraldehyde-3-phosphate dehydrogenase (GAPDH), used as a constitutive control. RT-PCR for FGF8 and β-actin was done as described by Lee et al., 2000).

P19CL6 cells [2] = assay: Spontaneous beating of differentiating cells
Experimental: as §1

P19CL6 cells [3] = assay: Sarcomeric MHC immunostaining (MF20-positive cells); design: dose or concentration left out as unconfirmed; conditions: LiCl, day 12
Experimental: (§2) Cells were seeded on glass cover slips and cultured with or without DMSO for 3 days. Cells were fixed with 4% paraformaldehyde and penneablized with 0.2% Triton X-100 for 5 min. To detect phosphorylated β-catenin, cells were incubated overnight with rabbit antibody to phoshpo-β-catenin (Ser33/Ser37/Thr4l; Cell Signaling) in Tris-buffered saline, 3% bovine serum albumin, then for 1 hr with goat antibody to rabbit IgG conjugated with Alexa Fluor 488 (Molecular Probes). Immunostaining for sarcomeric myosin heavy chains (MHC) was performed using fluorescein isothiocyanate-conjugated MF20 antibody (Oh et al., 2001). Nuclei were counterstained with DAPI.

[4] = system: TCF-dependent transcription; assay: TCF-dependent transcription, TOPFLASH luciferase assay in P19CL6 cells; conditions: DMSO treatment for 4 days
Experimental: Cells were seeded and cultured as above and transfected 1 day after plating, using in serum-free αMEM for 6 hr. Transfections contained 0.5 μg TOPFLASH or 0.1 μg pRL-CMV as the co-transfected control. Medium containing 10% FBS with or without DMSO changed 6 and 48 hr after transfection. Cells were lysed 4 days after DMSO treatment and luciferase assayed using the Dual-Luciferase system (Promega). Firefly luciferase activity, indicating TCF-dependent transcription, was normalized to the Renilla luciferase activity of each extract. TOPFLASH activity induced by Wnt3A CM versus control CM was measured after 18 hr. Activity of the GSK-3βA9 expression vector was corroborated by transient transfection in 293T cells: cells were passaged at a 1:2.5 dilution into 24-well dishes, and TOPFLASH, pRL-CMV, and PGK-Wnt3A were co-transfected by calcium-phosphate precipitation along with pcDNA3-GSK-3βA9-HA versus the empty vector control (Jordan et al., 1996). Twenty-four hrs after transfection, the medium was changed to Dulbecco's modified Eagle's medium (DMEM) supplemented with 0.2% BSA. Forty-eight hrs after transfection, cells were lysed and luciferase activities were assayed.

β-catenin = β-catenin and phospho-β-catenin Western blot / immunostaining in differentiating cells
Experimental: as §2
Cells were seeded on 6-well dishes (1.67×10^6 cells/well) and cultivated with or without 1% DMSO and 500 ng/ml Fx/FC chimeric protein. After 3 days, cells were harvested in phosphate-buffered saline in 4 C, centrifuged, and resuspended in 20 mM Tris-HCl, pH 7.5, 25 mM sodium fluoride, 1 mM EDTA, containing a protease inhibitor cocktail (Roche Molecular Biochemicals). Cells were incubated on ice for 20 min, followed by 30 strokes in a Dounce homogenizer, and centrifuged at 100,000×g for 30 min. The supernatant was collected as the soluble, cytoplasmic fraction and electrophoresised in 10% SDS-polyacrylamide gels. […]

SMILES	expression of Nkx2.5, GATA4, Tbx5, BMP2, BMP4 (P19CL6 cells [1]; d 5, QRT-PCR)	effect on each of the early cardiac markers and on sarcomeric MHC (P19CL6 cells [1]; in the absence of DMSO)	spontaneous beating (P19CL6 cells [2]; treated alone, without DMSO)	MF20-positive cells (P19CL6 cells [3])	time to expression of Nkx2.5, GATA4, MEF2C, and Tbx5 as early stage markers (P19CL6 cells [1]; 1% DMSO treatment, QRT-PCR) [days]	Wnt3A and Wnt8A induced as early as (P19CL6 cells [1]; after DMSO treatment, expression greatest on day 3) [days]	increase in luciferase activity (TCF-dependent transcriptional activity) [4] [fold]	phosphorylated β-catenin (β-catenin; DMSO treatment for 3 days, immunoblotting and immunocytochemistry)	soluble (cytosolic) β-catenin level (β-catenin; DMSO, day 3, Western blot)	spontaneous beating visible (P19CL6 cells [2]; 1% DMSO treatment) [days]
[Cl-].[Li+] [LiCl]	significantly increased	inductive effect	did not show spontaneous beating	significantly increased	–	–	–	–	–	–
C[S+](C)[O-] [DMSO]	–	–	–	–	3 to 8	2	9	decreased	accumulation of soluble β-catenin	9 to 10
